The text below walks through data of patent publication US9115147B2, “Tricyclic derivatives and their pharmaceutical use and compositions” (Cephalon, Inc., priority 2009, dated 2015).

Molecules are shown by their SMILES. Like-named read-outs stand apart in the source and are kept apart here.

In this assay the target is T1, human 5-HT6 receptor (Homo sapiens, UniProt P50406).
T1 construct: host or cells: CHO-K1 cells, stably transfected; membranes prepared in house
Put plainly: Human 5-HT6 Receptor Binding Assay ([3H]LSD, scintillation beads). The settings on record: membranes of CHO-K1 cells with recombinant human 5-HT6 receptor, 4 nM [3H]LSD. The protocol:
Human 5-HT6 Receptor Binding Assay
Membranes were prepared from CHO-K1 cells stably transfected with the human 5-HT6 receptor (Euroscreen; ES-316-C). The cells were grown in Gibco Advanced DMEM-F12 (Cat#12634010) containing 2% dialyzed FBS (Hyclone Cat#SH30079.03). The cells were harvested in phosphate buffered saline (PBS) containing 0.1 mM EDTA and pelleted by centrifugation (1000×g), the supernatant was discarded and the pellets were stored at −80° C. prior to membrane preparation. Membranes were prepared as previously described (J Bio Chem. 1992, 267 (14) 9844-51). Briefly, frozen cell pellet was resuspended in a lysis buffer containing 5 mM Tris-HCl (pH 7.5), 5 mM EDTA and 1 complete EDTA-free protease inhibitor tablet (Roche Applied Science, Indianapolis, Ind.) per 50 mL buffer, and homogenized with a tissue homogenizer. The cell lysate was then centrifuged at 40,000×g for 30 min at 4° C. to collect the membranes. The membrane pellets were washed in membrane buffer (50 mM Tris-HCl (pH 7.5), 0.6 mM EDTA, 5 mM MgCl2, 1 complete EDTA-free protease inhibitor tablet per 50 mL buffer) using a tissue homogenizer. The membranes were centrifuged at 40,000×g for 30 min at 4° C. and the pellets were resuspended in membrane buffer containing 250 mM sucrose, and protein concentration was determined using the Coomassie Plus kit (Pierce Biotechnology, Rockford, Ill.).
Membranes prepared from cells expressing recombinant human 5-HT6 receptor (h5-HT6) were resuspended in assay buffer containing 50 mM Tris HCl, (pH7.4), 4 mM CaCl2, 10 μg/mL saponin, and 0.1% (w/v) ascorbic acid. Membranes were preincubated using 1.75 μg membrane protein and 0.25 mg FlashBlue scintillation beads (PerkinElmer catalogue #FB001) per well at 4° C. for 30 min. […] Test compounds or assay controls for total and non-specific binding were diluted in DMSO as 100× solutions and serially diluted by half log concentrations on a Perkin Elmer JANUS Automated Workstation. Serotonin (10 μM final concentration) was used to determine non-specific binding in the assay. Plates were read using the Microbeta Trilux 1450 LSC and luminescence counter. Data were analyzed by nonlinear […] using the dose-response equation (variable slope) to calculate IC50 in XLfit4 (ID Business Solutions Inc.): y=(Bottom+((Top−Bottom)/(1+((IC50/x)^Hill slope))))
Ki value was then calculated according to the Cheng-Prusoff method using the equation below (Cheng and Prusoff, 1973): Ki, app=IC50/(1+([radioligand]/Kd))

[1] abbreviates: Cheng-Prusoff, read-out: Human 5-HT6 Ki app.
Where [2] appears, read: Human 5-HT6 Ki app (nM), Cheng-Prusoff.

T1 sequence (P50406 whole entry): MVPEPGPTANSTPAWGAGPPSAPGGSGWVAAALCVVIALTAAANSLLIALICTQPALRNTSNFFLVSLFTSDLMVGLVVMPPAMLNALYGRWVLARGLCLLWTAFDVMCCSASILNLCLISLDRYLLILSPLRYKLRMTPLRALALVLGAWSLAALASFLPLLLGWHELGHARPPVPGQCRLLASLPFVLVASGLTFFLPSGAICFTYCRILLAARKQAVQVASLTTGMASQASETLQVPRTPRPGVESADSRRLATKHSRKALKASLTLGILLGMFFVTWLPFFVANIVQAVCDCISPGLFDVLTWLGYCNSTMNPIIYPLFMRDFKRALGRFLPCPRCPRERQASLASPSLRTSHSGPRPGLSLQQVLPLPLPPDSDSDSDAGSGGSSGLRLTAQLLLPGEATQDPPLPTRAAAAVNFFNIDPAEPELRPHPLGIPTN

`[O-][S+](c1ccccc1)c1ccc2c(c1)OCC1NCCC21` (racemic) [Example 25, 7-(Phenylsulfinyl)-1,2,3,3a,4,9b-hexahydrochromeno[3,4-b]pyrrole]: the Ki under setting [1] was under 500 nM.

As to `[O-][S+](c1ccccc1)c1ccc2c(c1)OCC1NCCC21` (racemic) [Example 26, 7-(Phenylsulfinyl)-1,2,3,3a,4,9b-hexahydrochromeno[3,4-b]pyrrole], under setting [1], the Ki is over 1000 nM.

For the compound `O=S(=O)(c1ccccc1)c1ccc2c(c1)OCC1NCCC21` (racemic) [Example 104, 7-(phenylsulfonyl)-1,2,3,3a,4,9b-hexahydrochromeno[3,4-b]pyrrole], the Ki is 2.5 nM (actual data, read-out: Human 5-HT6 Ki) and under 500 nM under setting [1].

Take `O=S(=O)(c1cc(F)cc(F)c1)c1ccc2c(c1)OCC1NCCC21` (racemic) [Example 105, 7-[(3,5-difluorophenyl)sulfonyl]-1,2,3,3a,4,9b-hexahydrochromeno[3,4-b]pyrrole]: the Ki under setting [1] is under 500 nM.

In the case of `[O-][S+](c1ccccc1)c1ccc2c(c1)OCC1NCCC21` (racemic) [Example 106, 7-(phenylsulfinyl)-1,2,3,3a,4,9b-hexahydrochromeno[3,4-b]pyrrole], the Ki under setting [1] is under 500 nM.

As for `CC(C)Oc1cccc(S(=O)(=O)c2ccc3c(c2)OCC2NCCC32)c1` (racemic) [Example 107, 7-{[3-(propan-2-yloxy)phenyl]sulfonyl}-1,2,3,3a,4,9b-hexahydrochromeno[3,4-b]pyrrole], the Ki under setting [1] was under 500 nM.

As for `COc1cc(F)cc(S(=O)(=O)c2ccc3c(c2)OCC2NCCC32)c1` (racemic) [Example 109, 7-[(3-fluoro-5-methoxyphenyl)sulfonyl]-1,2,3,3a,4,9b-hexahydrochromeno[3,4-b]pyrrole], under setting [1], the Ki is under 500 nM.

Consider `COc1cncc(S(=O)(=O)c2ccc3c(c2)OCC2NCCC32)c1` (racemic) [Example 110, 7-[(5-methoxypyridin-3-yl)sulfonyl]-1,2,3,3a,4,9b-hexahydrochromeno[3,4-b]pyrrole], for which the Ki (Human 5-HT6 Ki (nM), actual data) worked out at 98.4 nM and the Ki under setting [2] is under 500 nM.

Regarding `O=S(=O)(c1cncc(Cl)c1)c1ccc2c(c1)OCC1NCCC21` (racemic) [Example 111, 7-[(5-chloropyridin-3-yl)sulfonyl]-1,2,3,3a,4,9b-hexahydrochromeno[3,4-b]pyrrole], the Ki under setting [2] was under 500 nM.

On to `O=S(=O)(c1cccc(F)c1)c1ccc2c(c1)OCC1NCCC21` (single isomer, unassigned) [Example 1, 7-[(3-fluorophenyl)sulfonyl]-1,2,3,3a,4,9b-hexahydrochromeno[3,4-b]pyrrole], for which, under setting [1], the Ki was under 500 nM.

In the case of `O=S(=O)(c1cccc(Cl)c1)c1ccc2c(c1)OCC1NCCC21` (single isomer, unassigned) [Example 2, 7-[(3-chlorophenyl)sulfonyl]-1,2,3,3a,4,9b-hexahydrochromeno[3,4-b]pyrrole], the Ki under setting [1] was under 500 nM.

With `O=S(=O)(c1cc(Cl)cc(Cl)c1)c1ccc2c(c1)OCC1NCCC21` (single isomer, unassigned) [Example 3, 7-[(3,5-dichlorophenyl)sulfonyl]-1,2,3,3a,4,9b-hexahydrochromeno[3,4-b]pyrrole], the Ki under setting [1] is under 500 nM.

As to `O=S(=O)(c1ccc(F)cc1)c1ccc2c(c1)OCC1NCCC21` (single isomer, unassigned) [Example 4, 7-[(4-fluorophenyl)sulfonyl]-1,2,3,3a,4,9b-hexahydrochromeno[3,4-b]pyrrole], under setting [1], the Ki was under 500 nM.

Regarding `O=S(=O)(c1cc(F)cc(Cl)c1)c1ccc2c(c1)OCC1NCCC21` (single isomer, unassigned) [Example 6, 7-[(3-chloro-5-fluorophenyl)sulfonyl]-1,2,3,3a,4,9b-hexahydrochromeno[3,4-b]pyrrole], the Ki under setting [1] was under 500 nM.

In the case of `O=S(=O)(c1cccc(OC(F)(F)F)c1)c1ccc2c(c1)OCC1NCCC21` (single isomer, unassigned) [Example 7, 7-{[3-(trifluoromethoxy)phenyl]sulfonyl}-1,2,3,3a,4,9b-hexahydrochromeno[3,4-b]pyrrole], the Ki under setting [1] was under 500 nM.

In the case of `O=S(=O)(c1cccc(C(F)(F)F)c1)c1ccc2c(c1)OCC1NCCC21` (single isomer, unassigned) [Example 8, 7-{[3-(trifluoromethyl)phenyl]sulfonyl}-1,2,3,3a,4,9b-hexahydrochromeno[3,4-b]pyrrole], under setting [1], the Ki is under 500 nM.

Regarding `CC(C)Oc1cccc(S(=O)(=O)c2ccc3c(c2)OCC2NCCC32)c1` (single isomer, unassigned) [Example 9, 7-{[3-(propan-2-yloxy)phenyl]sulfonyl}-1,2,3,3a,4,9b-hexahydrochromeno[3,4-b]pyrrole], the Ki under setting [1] was under 500 nM.

On to `O=S(=O)(c1cccc(F)c1)c1ccc2c(c1)OCC1NCCC21` (single isomer, unassigned) [Example 10, 7-[(3-fluorophenyl)sulfonyl]-1,2,3,3a,4,9b-hexahydrochromeno[3,4-b]pyrrole], for which the Ki under setting [1] is under 500 nM.

In the case of `O=S(=O)(c1cccc(Cl)c1)c1ccc2c(c1)OCC1NCCC21` (single isomer, unassigned) [Example 11, 7-[(3-chlorophenyl)sulfonyl]-1,2,3,3a,4,9b-hexahydrochromeno[3,4-b]pyrrole], the Ki under setting [1] is under 500 nM.

Take `O=S(=O)(c1cc(Cl)cc(Cl)c1)c1ccc2c(c1)OCC1NCCC21` (single isomer, unassigned) [Example 12, 7-[(3,5-dichlorophenyl)sulfonyl]-1,2,3,3a,4,9b-hexahydrochromeno[3,4-b]pyrrole]: the Ki under setting [1] was under 500 nM.

Regarding `O=S(=O)(c1ccc(F)cc1)c1ccc2c(c1)OCC1NCCC21` (single isomer, unassigned) [Example 13, 7-[(4-fluorophenyl)sulfonyl]-1,2,3,3a,4,9b-hexahydrochromeno[3,4-b]pyrrole], the Ki under setting [1] is under 500 nM.

For `O=S(=O)(c1cc(F)cc(F)c1)c1ccc2c(c1)OCC1NCCC21` (single isomer, unassigned) [Example 14, 7-[(3,5-difluorophenyl)sulfonyl]-1,2,3,3a,4,9b-hexahydrochromeno[3,4-b]pyrrole], under setting [1], the Ki was under 500 nM.

Regarding `O=S(=O)(c1cc(F)cc(Cl)c1)c1ccc2c(c1)OCC1NCCC21` (single isomer, unassigned) [Example 15, 7-[(3-chloro-5-fluorophenyl)sulfonyl]-1,2,3,3a,4,9b-hexahydrochromeno[3,4-b]pyrrole], the Ki under setting [1] is under 500 nM.

`O=S(=O)(c1cccc(OC(F)(F)F)c1)c1ccc2c(c1)OCC1NCCC21` (single isomer, unassigned) [Example 16, 7-{[3-(trifluoromethoxy)phenyl]sulfonyl}-1,2,3,3a,4,9b-hexahydrochromeno[3,4-b]pyrrole]: the Ki under setting [1] is under 500 nM.

Regarding `O=S(=O)(c1cccc(C(F)(F)F)c1)c1ccc2c(c1)OCC1NCCC21` (single isomer, unassigned) [Example 17, 7-{[3-(trifluoromethyl)phenyl]sulfonyl}-1,2,3,3a,4,9b-hexahydrochromeno[3,4-b]pyrrole], the Ki under setting [1] was under 500 nM.

In the case of `CC(C)Oc1cccc(S(=O)(=O)c2ccc3c(c2)OCC2NCCC32)c1` (single isomer, unassigned) [Example 18, 7-{[3-(propan-2-yloxy)phenyl]sulfonyl}-1,2,3,3a,4,9b-hexahydrochromeno[3,4-b]pyrrole], the Ki under setting [1] was under 500 nM.

With `O=S(=O)(c1ccc2c(c1)OCC1NCCC21)c1cccc2ccccc12` (single isomer, unassigned) [Example 19, 7-(naphthalen-1-ylsulfonyl)-1,2,3,3a,4,9b-hexahydrochromeno[3,4-b]pyrrole], under setting [1], the Ki was under 500 nM.

With `O=S(=O)(c1ccc2c(c1)OCC1NCCC21)c1cccc2ccccc12` (single isomer, unassigned) [Example 20, 7-(naphthalen-1-ylsulfonyl)-1,2,3,3a,4,9b-hexahydrochromeno[3,4-b]pyrrole], the Ki under setting [1] is under 500 nM.

For the compound `Cc1cccc(Sc2ccc3c(c2)OCC2NCCC32)n1` (single isomer, unassigned) [Example 21, 7-[(6-methylpyridin-2-yl)sulfanyl]-1,2,3,3a,4,9b-hexahydrochromeno[3,4-b]pyrrole], under setting [1], the Ki is over 1000 nM.
